Data: patent US20110003868A1, “TREATMENT OF A NEUROPATHY WITH RAPID RELEASE AMINOPYRIDINE” (The UAB Research Foundation, priority 2003, published 2011)

What was measured:
central nervous system = conditions: has been reported, cited from earlier work
subjects with GBS = assay: Phase II double-blind, placebo controlled, crossover study; motor strength on 0-5 ordinal scale; assay type: in vivo, human patients; conditions: on average, fast release 4-AP 10 mg three times daily, oral capsule
Source text: This is a Phase II double-blind, placebo controlled, crossover, dose-escalating study in subjects with […]. An initial trial of ten patients is randomized to one of the two treatment sequences (A or B) as shown below. The study population consists of subjects with GBS injury whose neurological status has been stable for at least eighteen months. Ten subjects are enrolled. Variables to be Collected: The measures of neurological status reported for this study are: • Motor strength was rated on the traditional 0-5 ordinal scale: • 0—absent motor strength • 1—trace motor strength • 2—can move the specified joint but only with gravity eliminated • 3—can move the joint against gravity but not against any opposing force • 4—can move the joint against opposing force but the strength is not normal for the person or symmetrical • 5—normal motor strength This scale is employed to measure the following motor strength for each of these joint motions on both the right and the left sides: hip flexion, hip adduction, hip abduction, knee flexion, knee extension, ankle dorsiflexion, ankle plantar flexion, shoulder abduction, elbow extension, elbow flexion, wrist flexion, and wrist extension. 4-AP is compounded in a #1 quick dissolution capsule containing 5 mg 4-AP and 235 mg lactose. […]

Structure (SMILES) | Toxicity (central nervous system; compared with 4-AP or 2,3-DAP) | Central nervous system stimulation (central nervous system; compared with 4-AP) | Upper extremity strength increase relative to placebo (subjects with GBS) [%] | Lower extremity strength increase relative to placebo (subjects with GBS; hip abduction, hip adduction, hip flexion, knee flexion, ankle dorsiflexion and plantar flexion) [%]
Nc1ccnc(N)c1 [2,4-DAP, 2,4-diaminopyridine] | less toxicity than either 4-AP or 2,3-DAP | less central nervous system stimulation than 4-AP | – | –
Nc1ccncc1 [4-AP, 4-aminopyridine] | – | – | 15 | 15
